# In patent publication US20070161578A1, “Treatment of nonalcoholic fatty liver disease using cholesterol lowering agents and/or H3 receptor antagonist/inverse agonist” (priority 2005, published 2007):
# Assays:
# DIO mice = test: DIO C57BL/6J mice on high fat/cholesterol diet, 4 weeks ezetimibe in diet (Example 3); assay type: in vivo; set-up: liver to body weight ratio (FIG. 6), top dose group: dose or concentration left out as unconfirmed
# From the text: C57BL/6J mice were fed a high fat/cholesterol diet (Research Diets, with 45% Kcal fat and 0.12% w/w cholesterol) for 7 months after weaning.
# Niemann-Pick type C mice = conditions: ezetimibe treatment; cited from earlier work
# [1] = system: Diet-induced obese (DIO) mice; test: Diet-induced obese (DIO) mice with hepatic steatosis, four weeks treatment (first example); assay type: in vivo; conditions: ezetimibe 5 mg/kg/day, formula XIIIA 12 mg/kg/day, or both
# Protocol: The mice were sacrificed and the liver weight, liver triglyceride level and liver free cholesterol content were determined for each group were determined and summarized in FIGS. 1 to 4.
# [2] = system: Diet induced obese (DIO) mice; test: DIO mice with hepatic steatosis and fibrosis, plasma ALT after four weeks treatment (Example 2); assay type: in vivo; conditions: formula XIIID 9 mg/kg/day, alone or with ezetimibe 2 mg/kg/day
# Protocol: Diet induced obese (DIO) mice, which had developed obesity, dyslipidemia, hepatic steatosis and fibrosis by feeding them a western diet containing 45% fat and 0.12% cholesterol for seven months, were divided into four groups and treated with nothing (control), ezetimibe (formula II) (2 mg/kg/day), the compound of formula XIIID (9 mg/kg/day) or a combination of ezetimibe (2 mg/kg/day) and compound of formula XIIID (9 mg/kg/day) for four weeks. The mice were sacrificed and the plasma alanine aminotransferase (ALT) enzyme activities, a plasma biomarker of liver injury with steatohepatitis, were determined for each group, this is summarized in FIG. 5.
# [3] = after 4 weeks of ezetimibe treatment
# [4] = after 4 weeks, ezetimibe-treated DIO mice compared to the control
# [5] = after 4 weeks, livers from ezetimibe-treated mice
# [6] = ezetimibe 1.6 and 5.3 mg/kg/day, compared to the control group
smiles,measurement,setting,value
O=C1[C@H](CC[C@H](O)c2ccc(F)cc2)[C@@H](c2ccc(O)cc2)N1c1ccc(F)cc1 [ezetimibe],HDL-C,DIO mice; [3],not changed
same,LDL-C,DIO mice; [3],significant decreases
same,VLDL-C,DIO mice; [3],significant decreases
same,reduction of plasma triglyceride,DIO mice; [3],15%
same,reduction of total plasma cholesterol,DIO mice; [3],30%
same,liver to body weight ratio,DIO mice; [4],significantly reduced
same,liver wet weight,DIO mice; [4],significantly reduced
same,liver cholesteryl esters,DIO mice; [5],significantly lower
same,liver free cholesterol,DIO mice; [5],significantly lower
same,liver triglyceride,DIO mice; [5],significantly lower
same,"liver triglyceride levels (FIG. 7), across doses","DIO mice; all groups that received ezetimibe, 4 weeks",dose-dependent decrease in liver triglyceride levels
same,"liver to body weight ratio (FIG. 6), across doses","DIO mice; ezetimibe 0.5, 1.6 and 5.3 mg/kg/day, 4 weeks",dose-dependent decrease in liver to body weight ratio
same,liver cholesterol content (FIG. 9),DIO mice; [6],significant decrease in liver cholesterol content
same,liver cholesteryl ester content (FIG. 8),DIO mice; [6],significant decrease in liver cholesteryl ester content
same,"liver to body weight ratio (FIG. 6), top dose group","DIO mice; ezetimibe, 4 weeks",greatest decline in liver to body weight ratio
same,VLDL-TG production rates,DIO mice; ezetimibe-treated vs control DIO mice,comparable
same,hepatic cholesterol accumulation,Niemann-Pick type C mice,reduced hepatic cholesterol accumulation
same,histological abnormalities,Niemann-Pick type C mice,improved histological abnormalities
same,liver enzymes,Niemann-Pick type C mice,improved
same,effect in treating NAFLD (conclusion from FIGS. 1 to 4),[1],effective in treating NAFLD
same,liver cholesteryl ester content (FIG. 3),[1]; vs control,decrease in liver cholesteryl ester content
same,liver free cholesterol content (FIG. 4),[1]; vs control,decrease in liver cholesterol content
same,liver triglyceride levels (FIG. 2),[1]; vs control,decrease in liver triglyceride levels
same,"liver weight (liver to body weight ratio, FIG. 1)",[1]; vs control,decrease in liver weight
CO/N=C(/c1ccccn1)C1CCN(C(=O)C2(F)CCN(Cc3ccnc(N)c3)CC2)CC1 [formula XIIID],plasma alanine aminotransferase (ALT) enzyme activities (FIG. 5),[2],decrease in plasma ALT
